# Key:
# ddy strain of male mice [1] = assay: Acute toxicity (oral, mice, 7 days observation); format: in vivo
# Protocol: (§1) Next, several tests for determining the pharmacological properties, in that acute toxicity, anti-pyretic activity, analgesic activity and anti-inflammatory activity of the present 1,1,3,5-substituted biuret compounds of the formula (1) were conducted and the test results are shown in Table (2). In the tests, each compounds to be tested was used as a suspension in 0.25% carboxymethylcellulose solution. Methods for testing are explained as follows:
# The ddy strain of male mice (body weight, 20-25 g) were used as test animals. The mice were fasted overnight and the compound to be tested was administered orally. […] The lethal dose (mg/kg, body weight) of the test compound was determined in connection with the death number of mice/the number of mice tested. In Table 2, the values indicated with Δ marks are 50% lethal dose, LD50 (mg/kg, body weight).
# ddy strain of male mice [2] = assay: Analgesic activity, acetic acid-induced stretching method; format: in vivo, mouse (ddy); conditions: for inhibition in vivo at 100 mg/kg / inhibition in vivo at 200 mg/kg: read-out: Analgesic activity, acetic acid-induced stretching method, inhibitory ratio
# Protocol: as §1
# According to the method reported by Koster et al., [Fed. Proc., Vol. 18, pp. 412 (1959)], the ddy strain of male mice (body weight, 20-25 g) were used as test animals. The mice were fasted overnight, 100 mg/kg body weight of the test compound was administered orally, then 1 hour after the administration, 0.2 ml of 0.7% acetic acid solution was injected intraperitoneally. The acetic acid-induced stretching symptom of mouse was observed. Analgesic activity of the test compound was calculated as the inhibitory ratio (%). In Table 2, the values in parentheses show the data obtained from the test by using the dosage other than 100 mg/kg body weight. Further, the values indicated with Δ marks show 50% effective dose, ED50 (mg/kg body weight).
# [3] = tested on: Wistar strain of male rats; assay: Anti-pyretic activity (dry-yeast-induced fever); format: in vivo, rat (Wistar); conditions: oral (dose not given), up to 4 hours after administration
# Protocol: as §1
# According to the method reported by Tanabe [Folia Pharmacologia Japonica, Vol. 73, pp. 803 (1977)], the Wistar strain of male rats (150-180 g, body weight) were used as test animals. The rats were fasted overnight, and 1 ml/100 g (body weight) of 10% dry-yeast suspension were subcutaneously injected on the back of the rats. Five hours after the injection, the test compound was administered orally, then the body temperature of the rat was measured at time sequences. Anti-pyretic activity of the test compound was determined as the FI (febril index) by integrating pyrogenetic curve up to 4 hours after the administration of the test compound with time, and indicated as inhibitory ratio (%) shown by the following formula, [formula]
# ddy strain of male mice [4] = assay: Analgesic activity, Haffner method (morphine threshold dose, clamp); format: in vivo, mouse (ddy); conditions: for Analgesic activity, Haffner method, inhibitory ratio / inhibition in vivo at 100 mg/kg: 100 mg/kg oral, 45 minutes before morphine hydrochloride; for ED50 / inhibition in vivo at 100 mg/kg: Mus musculus; for ED50: oral, Δ mark, range in parentheses; for inhibition in vivo at 100 mg/kg: read-out: Analgesic activity, Haffner method, inhibitory ratio
# Protocol: as §1
# According to the modified method reported by Fujimura et. al., [Bulletin of the Institute for Chemical Research, Kyoto University, No. 25, pp. 36 (1951)], the ddy strain of male mice (body weight, 20-25 g) were used as test animals. The mice were fasted overnight, 100 mg/kg body weight of the test compound was administered orally, then 45 minutes after the administration, the threshold amount (1.5-2.5 mg/kg body weight) of morphine hydrochloride was injected subcutaneously. Then 1-hour pain reaction of the mouse caused by a clamp was observed. Analgesic activity of the test compound was calculated as the inhibitory ratio (%). In Table 2, the values in parentheses show the data obtained from the test by using the dosage other than 100 mg/kg body weight. Further, the values indicated with Δ marks show 50% effective dose, ED50 (mg/kg body weight).
# [5] = 100 mg/kg oral, 1 hour before acetic acid
Compound,Acute toxicity: death number of mice/number of mice tested (ddy strain of male mice [1]; 2000 mg/kg oral),"Anti-pyretic activity, inhibitory ratio (febril index) [3] [%]",Acute toxicity: death number of mice/number of mice tested (ddy strain of male mice [1]; 1000 mg/kg oral),"Analgesic activity, acetic acid-induced stretching method, inhibitory ratio (ddy strain of male mice [2]; [5]) [%]","Analgesic activity, Haffner method, inhibitory ratio (ddy strain of male mice [4]) [%]",further results
"CN(C)C(=O)NC(=O)Nc1ccccc1F [Compound No. 2, 1,1-Dimethyl-5-(2-fluorophenyl)biuret]",0/4,,,,,"inhibition in vivo at 100 mg/kg (ddy strain of male mice [2]; Mus musculus, 100 mg/kg oral, 1 hour before acetic acid): 40%"
CN(C)C(=O)NC(=O)Nc1ccc(Cl)cc1 [Compound No. 3],0/4,,,,,"inhibition in vivo at 100 mg/kg (ddy strain of male mice [2]; Mus musculus, po): 50%"
"CN(C)C(=O)N(C)C(=O)Nc1ccccc1F [Compound No. 7, 1,1,3-Trimethyl-5-(2-fluorophenyl)biuret]",4/4,76,1/4,62.5,75,
"Cc1ccc(NC(=O)N(C)C(=O)N(C)C)cc1C [Compound No. 30, 1,1,3-Trimethyl-5-(3,4-dimethylphenyl)biuret]",1/4,31,,,,ED50 (ddy strain of male mice [4]): 86 mg/kg
"CCN(C)C(=O)N(C)C(=O)Nc1ccccc1 [Compound No. 45, 1-ethyl-1,3-dimethyl-5-phenylbiuret]",,49,,,,"Analgesic activity, acetic acid-induced stretching method, inhibitory ratio (ddy strain of male mice [2]; 80 mg/kg oral): 50%; ED50 (ddy strain of male mice [4]): 100 mg/kg"
"CN(C)C(=O)N(C)C(=O)Nc1ccc(F)cc1 [compound 8, 1,1,3-Trimethyl-5-(4-fluorophenyl)biuret]",,61,,87.5,62.5,
"CN(C)C(=O)N(C)C(=O)Nc1ccccc1Cl [compound 10, 1,1,3-Trimethyl-5-(2-chlorophenyl)biuret]",0/4,66,,,37.5,"ED50 (ddy strain of male mice [2]; Mus musculus, oral, Δ mark, range in parentheses): 135 mg/kg"
"CN(C)C(=O)N(C)C(=O)Nc1ccc(Cl)cc1Cl [compound 13, 1,1,3-Trimethyl-5-(2,4-dichlorophenyl)biuret]",3/4,42,0/4,50,75,
"CN(C)C(=O)N(C)C(=O)Nc1ccc(Cl)c(Cl)c1 [compound 14, 1,1,3-Trimethyl-5-(3,4-dichlorophenyl)biuret]",3/4,43,1/4,50,62.5,
"CN(C)C(=O)N(C)C(=O)Nc1c(Cl)cccc1Cl [compound 15, 1,1,3-Trimethyl-5-(2,6-dichlorophenyl)biuret]",,29,,50,50,
"CN(C)C(=O)N(C)C(=O)Nc1ccc(N(C)C)cc1 [compound 19, 1,1,3-Trimethyl-5-(4-dimethylaminophenyl)biuret]",0/4,26,,62.5,50,
"CN(C)C(=O)N(C)C(=O)Nc1ccc(O)cc1 [compound 21, 1,1,3-Trimethyl-5-(4-hydroxyphenyl)biuret]",3/4,,0/4,,,"inhibition in vivo at 100 mg/kg (ddy strain of male mice [2]; Mus musculus, po): 37.5%; inhibition in vivo at 100 mg/kg (ddy strain of male mice [4]): 12.5%"
"COc1ccccc1NC(=O)N(C)C(=O)N(C)C [compound 22, 1,1,3-Trimethyl-5-(2-methoxyphenyl)biuret]",2/4,13,0/4,37.5,,inhibition in vivo at 100 mg/kg (ddy strain of male mice [4]): 50%
"COc1ccc(NC(=O)N(C)C(=O)N(C)C)cc1OC [compound 24, 1,1,3-Trimethyl-5-(3,4-dimethoxyphenyl)biuret]",4/4,18,0/4,75,62.5,
"Cc1cccc(NC(=O)N(C)C(=O)N(C)C)c1C [compound 29, 1,1,3-Trimethyl-5-(2,3-dimethylphenyl)biuret]",4/4,40,1/4,,25,
"Cc1cccc(C)c1NC(=O)N(C)C(=O)N(C)C [compound 31, 1,1,3-Trimethyl-5-(2,6-dimethylphenyl)biuret]",,69,,75,37.5,
"CSc1ccc(NC(=O)N(C)C(=O)N(C)C)cc1 [compound 34, 1,1,3-Trimethyl-5-(4-methylthiophenyl)biuret]",4/4,,0/4,50,,
CCCCNC(=O)N(C(=O)N(C)C)c1ccccc1 [compound 40],1/4,,0/4,,,"inhibition in vivo at 200 mg/kg (ddy strain of male mice [2]; Mus musculus, po): 62.5%; inhibition in vivo at 100 mg/kg (ddy strain of male mice [4]): 62.5%"
"CNC(=O)N(C)C(=O)N(c1ccccc1)c1ccccc1 [compound 65, 1,1-Diphenyl-3,5-dimethylbiuret]",4/4,,1/4,,,"inhibition in vivo at 100 mg/kg (ddy strain of male mice [2]; Mus musculus, po): 12.5%; inhibition in vivo at 100 mg/kg (ddy strain of male mice [4]): 50%"
"CN(C(=O)Nc1ccccc1)C(=O)N1CCCC1 [compound 68, 1,1-Tetramethylene-3-methyl-5-phenylbiuret]",,24,,,,"Acute toxicity: death number of mice/number of mice tested (ddy strain of male mice [1]; mouse, in vivo): 2/4; inhibition in vivo at 100 mg/kg (ddy strain of male mice [2]; Mus musculus, po): 75%"
"O=C(NC(=O)N1CCCCC1)Nc1ccccc1 [compound 69, 1,1-Pentamethylene-5-phenylbiuret]",0/4,,,,,"inhibition in vivo at 200 mg/kg (ddy strain of male mice [2]; Mus musculus, po): 50%; ED50 (ddy strain of male mice [4]): 115 mg/kg"
"CNC(=O)N(C)C(=O)N1CCOCC1 [compound 72, 1,1-(3-Oxapentamethylene)-3,5-dimethylbiuret]",0/4,,,,,"inhibition in vivo at 100 mg/kg (ddy strain of male mice [2]; Mus musculus, po): 50%; inhibition in vivo at 100 mg/kg (ddy strain of male mice [4]): 25%"
